We go through 3 compounds from US10101322B2, “Photoactivated chemical bleaching of dyes using borates” (GENERAL ELECTRIC COMPANY, priority 2015, dated 2018).

Data set [1] is described as follows: Eosin Y bleaching with borates in water. To be noted: aqueous solution; in Example 2A 0.5 mM borate, 1 minute, 100 W halogen lamp. As to the method:
To a 2 mL solution of Eosin in water (2.26×10^-5M solution), 2 mL of 0.5 mM of cationic Borate (e′), Cationic Borate (f′) or anionic borate (MBB) were added, and the solution was irradiated for 1 minute using 100 W halogen lamp. […] FIG. 6 is a bar graph comparing bleaching kinetics of eosin by different borates MBB (a), e′ (b), and f′ (c).

Data set [2] can be described thus: Cy3 bleaching with borates in water. To be noted: aqueous solution; in Example 2D 0.5 mM borate, 100 W halogen lamp, absorbance at 552 nm. As to the method:
To a 2 mL solution of previously hydrolyzed Cy3 bis reactive dye in water (3.4×10^-5M solution), 2 mL of 0.5 mM solution of anionic borate (MBB), cationic borate (e′) or cationic borate (f′) were added and the solution was irradiated. […] FIG. 10 is a bar graph comparing bleaching kinetics of Cy3 by different borates.

A short description of data set [3]: Eosin Y bleaching with borates in ethanol. To be noted: 1 mM borate, 2 min irradiation, 100 W halogen lamp. As to the method: To a 2 mL solution of Eosin in ethanol (2.5×10^-5M solution), 2 mL of 1 mM of anionic borate (MBB), a neutral borate a, (Formula I) or a neutral borate b (Formula I) were added and the solution was irradiated for 1-2 minutes using 100 W halogen lamp. Absorbance at λmax of dye was measured to monitor photobleaching, and the results were plotted, as is shown in the bar graph plot of FIG. 7.

A short description of data set [4]: Cy3 dye bleaching with borates in ethanol. The conditions noted are these: 1 mM borate, 1 minute, 100 W halogen lamp, absorbance at 552 nm. As to the method:
To a 2 mL solution of previously hydrolyzed Cy3 bisreactive dye (GE Healthcare) in ethanol (2.5×10^-5M solution), 2 mL of 1 mM solution of one of the following borates: anionic borate (MBB), neutral borate, a or b (Formula I), and cationic borates e′ or f′ in ethanol was added. Samples were irradiated for 1 minute using 100 W halogen lamp. The decrease in Cy3 absorbance at 552 nm was measured to monitor photobleaching, and the results were plotted, as is shown in FIG. 8. The bar graph compares the bleaching kinetics of Cy3 by different borates in ethanol.

Data set [5] can be described thus: Stability of solid borate on exposure to air (1H NMR, colour).
Data set [6] deals with Her2/CEP17 DNA FISH signal. The data set is described as follows: DNA FISH signal bleaching and FISH on PICB bleached slides. Further details: species or system Human. As to the method: Slides were H&E stained and bleached as described above. Alternatively previously imaged and archived H&E slides were processed through the steps of decoverslipping, hydration, antigen retrieval, blocking and bleaching with f′ as described above for freshly stained H&E slides.
Slides were immersed in a pre-warmed 0.1% pepsin solution for 8 minutes then placed in room temperature PBS for 2 minutes. Samples were re-fixed in 4% formalin for 10 minutes then washed 2×5 minutes in PBS. Slides were dehydrated in ethanol series 50%, 70%, and 95%, 2 minutes each and allowed to dry on bench top for 10 minutes. Pre-mixed dual Her2/CEP17 probe was vortexed, spun, and added to samples. Samples were coverslipped and sealed with a rubber sealant per usual practice. After allowing rubber cement to cure for 10 minutes, probes were hybridized in Thermobrite cycler: 80° C. denaturation for 10 minutes followed by 37° C. incubation overnight. Rubber cement was removed and slides were decoverslipped in preheated 37° C. 2×SSC for 5 minutes. […] Slides were washed 2×2 minutes with 2×SSC, removed from buffer to dry, coverslipped with 4% DABCO in 90% glycerol/2×SSC, and imaged on an Olympus IX81 fluorescence microscope using a 40× objective with following exposure times: for DAPI (2 ms), spectrum green (CEP17-200 ms), and spectrum orange (Her2-400 ms). […]

The nature of data set [7]: Residual eosin bleaching (PICB) in H&E stained tissue sections. To be noted: 0.15 mM f′, irradiation in presence of DABCO, three cycles. The arrangement: species or system Human. As to the method: Human breast tissue array samples were obtained as tissue slides embedded in paraffin from Clarient (Huntsville, Ala.). Slides were baked at 60° C. for 15 minutes and then washed with xylene (1×10 min) to remove paraffin.
All the slides were stained with hematoxylin and eosin and coverslipped following the standard procedures in the literature (IHC World LLC, Protocol Database, Hematoxylin and Eosin (H&E) Staining Protocol). After staining, the images were obtained as described below.
Bright field and Fluorescence images were taken for all the slides using Leica bright field microscope and Olympus IX81 fluorescence microscope (Olympus Co., Tokyo, Japan respectively. For fluorescence imaging the following excitation filters were used: eosin 500/40 nm, Cy3 550/40 nm and Cy5 650/40 nm.
After imaging, samples were decoverslipped by incubation in xylenes overnight and hydrated by washing in four solutions of ethanol with concentrations decreasing in the order of 100%, 95%, 70%, and 50% followed by a wash with 1× phosphate buffer saline (PBS, pH 7.4). After rehydration, the slides were washed with 1×PBS. A ten minute incubation in 0.3% Triton X-100 in PBS was performed for membrane permeabilization of the tissue, followed by a wash with 1×PBS.
Hydrated slides were treated with dual-buffer heat-induced epitope retrieval. […] Slides were imaged by brightfield and fluorescence microscopy. […]

Data set [8] is described as follows: Charge transfer complex formation between Eosin-Y and cationic borate (UV-Vis titration). Format: physicochemical. To be noted: without irradiation. Here is the method: A 50 ul of 1 mM eosin solution in water was further diluted to 3 ml with water and to this was added 1 mM solution of f′ (Formula I) in water in 25 ul portions. UV-Vis spectrum was acquired after every 25 μL f′ addition.
This is believed to be due an electrostatic charge-transfer complex formulation between cationic borate: eosin-y complex.
This phenomenon may be attributed to formation of charge-transfer complex between anionic Eosin-Y and cationic Borate. The electrostatic charge transfer formation is responsible for quenching of Eosin-Y fluorescence.

SMILES strings stand for the structures. “Also recorded” adds a separate entry of the source.

Turning to `C[N+](C)(C)c1ccc([B-](c2ccc([N+](C)(C)C)cc2)(C2CCCC2)C2CCCC2)cc1.[I-]` [e′], in data set [1], the “Eosin-Y photobleaching compared to anionic borate (MBB)” value is listed as “improved”. In data set [2], the “Cy3 bleaching kinetics compared to anionic borate (MBB)” value is listed as “much faster bleaching kinetics”. The “order of Eosin photobleaching kinetics” value in data set [3] is on record as “cationic>neutral>anionic”. Besides, the Cy3 bleaching kinetics result in data set [4] was “performed well”.

For `c1ccc(C[B-](c2ccccc2)(c2ccccc2)c2ccccc2)cc1` [MBB, monobenzyltriphenyl borate, reference compound], in data set [3], the “order of Eosin photobleaching kinetics” value was “cationic>neutral>anionic”. Further, the “time to evidence of decomposition” value in data set [5] (exposure to air) is given as less than 10 min. The “colour change on exposure to air” value in data set [5] (white solid stored inertly) is given as “becoming yellow in color immediately on exposure to air”.

In the case of `COS(=O)(=O)[O-].C[N+](C)(C)c1ccc([B-](c2ccc([N+](C)(C)C)cc2)(C2CCCC2)C2CCCC2)cc1` [f′], the “bleaching of DNA FISH signal” value in data set [6] is “erased”. Also, the “Eosin-Y photobleaching compared to anionic borate (MBB)” value in data set [1] is on record as “significantly improved”. Moreover, the “Cy3 bleaching kinetics compared to anionic borate (MBB)” value in data set [2] is “significantly improved; also recorded: much faster bleaching kinetics”. Further, the “bleaching of residual eosin signal in tissue” value in data set [7] was “efficient bleaching; also recorded: efficiently bleach eosin; also recorded: effective bleaching; also recorded: mostly removed”. Moreover, the “order of Eosin photobleaching kinetics” value in data set [3] was “cationic>neutral>anionic”. For the same compound, the Cy3 bleaching kinetics entry in data set [4] is “performed well”. In data set [5] (after 2 months of exposure to air), this compound gave a decomposition of roughly 2%. The “degradation by 1 HNMR” value in data set [5] (solid form, exposure to air for over 5 weeks) is listed as “no degradation”. Moreover, the “bathochromic (red-shift) of the Eosin-Y peak” value in data set [8] (1 mM f′ added in 25 ul portions to eosin in water) is on record as 518 nm shifts to 523 nm. In data set [8] (water), the “colour change of eosin solution on borate addition” value is “clear change in color to non-fluorescent pink”.
